# Starred links: 1 amine or outer side, 2 acyl side, 3 side chain; linkers in the order of their positions; H or OH if unused. Non-standard residues stand in square brackets, D forms with d. Residues, ends and D or L forms follow the SMILES beside them. *: point of attachment. dPhe(3,4-Cl2) = N[C@H](Cc1ccc(Cl)c(Cl)c1)C(=O)O; X9 = CN=C(NCCC[C@H](N[*:1])C(=O)[*:2])N(C)C; dPhe(4-Cl) = N[C@H](Cc1ccc(Cl)cc1)C(=O)O; Pyrimidin2yl(4,6-Me2) = Cc1cc(C)nc(*)n1; d2Nal = N[C@H](Cc1ccc2ccccc2c1)C(=O)O; dLys(Me2) = CN(C)CCCC[C@@H](N)C(=O)O; Lys(iPr) = CC(C)NCCCC[C@H](N)C(=O)O; Orn(iPr) = CC(C)NCCC[C@H](N)C(=O)O; 3Pal = N[C@@H](Cc1cccnc1)C(=O)O; d3Pal = N[C@H](Cc1cccnc1)C(=O)O; Nicotinoyl = O=C(c1cccnc1)*; Picolinoyl = O=C(c1ccccn1)*; Orn = NCCC[C@H](N)C(=O)O
# Tested on: anaesthesized rats
# Experiment: wheal test, intradermal injection
# Format: in vivo, rat
# Settings: Table I; 10 ug peptide intradermally
# Method in brief: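 Anaesthetized rats given intradermal injection of 10 ug peptide in 100 ul saline; area of the wheal calculated from its diameter.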
row,SMILES,Wheal
1,CN=C(NCCC[C@H](NC(=O)[C@H](CO)NC(=O)[C@@H](Cc1cccnc1)NC(=O)[C@@H](Cc1ccc(Cl)cc1)NC(=O)[C@@H](Cc1ccc2ccccc2c1)NC(C)=O)C(=O)N[C@H](CCCCNC(=O)c1cccnc1)C(=O)N[C@@H](CC(C)C)C(=O)N[C@@H](CCCCNC(C)C)C(=O)N1CCC[C@H]1C(=O)N[C@H](C)C(N)=O)N(C)C [compound 24931] (Ac-[d2Nal][dPhe(4-Cl)][d3Pal]S[X9][dK](Nicotinoyl)L[Lys(iPr)]P[dA]-NH2),140 ± 7.0 mm^2 /10
2,CC(=O)N[C@H](Cc1ccc2ccccc2c1)C(=O)N[C@H](Cc1ccc(Cl)cc1)C(=O)N[C@H](Cc1cccnc1)C(=O)N[C@@H](CO)C(=O)N[C@@H](CCCCNC(=O)c1cccnc1)C(=O)N[C@H](Cc1c[nH]cn1)C(=O)N[C@@H](CC(C)C)C(=O)N[C@@H](CCCNC(=N)N)C(=O)N1CCC[C@H]1C(=O)N[C@H](C)C(N)=O [compound 24544] (Ac-[d2Nal][dPhe(4-Cl)][d3Pal]SK(Nicotinoyl)[dH]LRP[dA]-NH2),146.7 ± 3.6 mm^2 /10
3,"CC(=O)N[C@H](Cc1ccc(Cl)c(Cl)c1)C(=O)N[C@H](Cc1ccc(Cl)cc1)C(=O)N[C@H](Cc1cccnc1)C(=O)N[C@@H](CO)C(=O)N[C@@H](Cc1ccc(O)cc1)C(=O)N[C@H](CCCCNC(=O)c1cccnc1)C(=O)N[C@@H](CC(C)C)C(=O)N[C@@H](CCCCNC(C)C)C(=O)N1CCC[C@H]1C(=O)N[C@H](C)C(N)=O [compound 25338] (Ac-[dPhe(3,4-Cl2)][dPhe(4-Cl)][d3Pal]SY[dK](Nicotinoyl)L[Lys(iPr)]P[dA]-NH2)",103.9 mm^2 /10
4,CC(=O)N[C@H](Cc1ccc2ccccc2c1)C(=O)N[C@H](Cc1ccc(Cl)cc1)C(=O)N[C@H](Cc1cccnc1)C(=O)N[C@@H](CO)C(=O)N[C@@H](CCCCNC(=O)c1cccnc1)C(=O)N[C@H](CCCCN(C)C)C(=O)N[C@@H](CC(C)C)C(=O)N[C@@H](CCCCNC(C)C)C(=O)N1CCC[C@H]1C(=O)N[C@H](C)C(N)=O [compound 25591] (Ac-[d2Nal][dPhe(4-Cl)][d3Pal]SK(Nicotinoyl)[dLys(Me2)]L[Lys(iPr)]P[dA]-NH2),111 ± 2 mm^2 /10
5,"CC(=O)N[C@H](Cc1ccc2ccccc2c1)C(=O)N[C@H](Cc1ccc(Cl)cc1)C(=O)N[C@H](Cc1cccnc1)C(=O)N[C@@H](CO)C(=O)N[C@@H](CCCNc1nc(C)cc(C)n1)C(=O)N[C@H](CCCCNC(=O)c1cccnc1)C(=O)N[C@@H](CC(C)C)C(=O)N[C@@H](CCCCNC(C)C)C(=O)N1CCC[C@H]1C(=O)N[C@H](C)C(N)=O [compound 25506] (Ac-[d2Nal][dPhe(4-Cl)][d3Pal]S[Orn](Pyrimidin2yl(4,6-Me2))[dK](Nicotinoyl)L[Lys(iPr)]P[dA]-NH2)",110 ± 3 mm^2 /10

# Continued, values first:
row,Wheal,SMILES
1,116 ± 3.3 mm^2 /10,CC(=O)N[C@H](Cc1ccc2ccccc2c1)C(=O)N[C@H](Cc1ccc(Cl)cc1)C(=O)N[C@H](Cc1cccnc1)C(=O)N[C@@H](CO)C(=O)N[C@@H](CCCCNC(=O)c1ccccn1)C(=O)N[C@H](CCCCNC(=O)c1cccnc1)C(=O)N[C@@H](CC(C)C)C(=O)N[C@@H](CCCCNC(C)C)C(=O)N1CCC[C@H]1C(=O)N[C@H](C)C(N)=O [compound 25510] (Ac-[d2Nal][dPhe(4-Cl)][d3Pal]SK(Picolinoyl)[dK](Nicotinoyl)L[Lys(iPr)]P[dA]-NH2)
2,132.8 mm^2 /10,CC(=O)N[C@H](Cc1ccc2ccccc2c1)C(=O)N[C@H](Cc1ccc(Cl)cc1)C(=O)N[C@H](Cc1cccnc1)C(=O)N[C@@H](CO)C(=O)N[C@@H](Cc1cccnc1)C(=O)N[C@H](CCCCNC(=O)c1cccnc1)C(=O)N[C@@H](CC(C)C)C(=O)N[C@@H](CCCCNC(C)C)C(=O)N1CCC[C@H]1C(=O)N[C@H](C)C(N)=O [compound 25383] (Ac-[d2Nal][dPhe(4-Cl)][d3Pal]S[3Pal][dK](Nicotinoyl)L[Lys(iPr)]P[dA]-NH2)
3,136.0 mm^2 /10,CC(=O)N[C@H](Cc1ccc2ccccc2c1)C(=O)N[C@H](Cc1ccc(Cl)cc1)C(=O)N[C@H](Cc1cccnc1)C(=O)N[C@@H](CO)C(=O)N[C@@H](CCCCNC(=O)c1cccnc1)C(=O)N[C@H](CCCCNC(=O)c1cccnc1)C(=O)N[C@@H](CC(C)C)C(=O)N[C@@H](CCCNC(C)C)C(=O)N1CCC[C@H]1C(=O)N[C@H](C)C(N)=O [compound 24933] (Ac-[d2Nal][dPhe(4-Cl)][d3Pal]SK(Nicotinoyl)[dK](Nicotinoyl)L[Orn(iPr)]P[dA]-NH2)
4,120 ± 7 mm^2 /10,CC(=O)N[C@H](Cc1ccc2ccccc2c1)C(=O)N[C@H](Cc1ccc(Cl)cc1)C(=O)N[C@H](Cc1cccnc1)C(=O)N[C@@H](CO)C(=O)N[C@@H](CCCCNC(=O)c1cccnc1)C(=O)N[C@H](CCCCNC(=O)c1ccccn1)C(=O)N[C@@H](CC(C)C)C(=O)N[C@@H](CCCCNC(C)C)C(=O)N1CCC[C@H]1C(=O)N[C@H](C)C(N)=O [compound 25589] (Ac-[d2Nal][dPhe(4-Cl)][d3Pal]SK(Nicotinoyl)[dK](Picolinoyl)L[Lys(iPr)]P[dA]-NH2)

# From US5763404A, “Methods for using LHRH antagonists with low histamine release” (priority 1995, dated 1998)
